We go through eight compounds from ChEMBL document CHEMBL1201862, “PubChem BioAssay data set” (2004).

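Test compounds were applied to cells in 96-well plates for 48 hours at 5 doses. GI50 is the concentration that inhibits growth by half.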 Calls of active or inactive are those of the source. No stated cut-off is given here; in the data, active = GI50 up to about 1.1 µM and inactive = higher. Where a SMILES comes first, the peptide text is derived from it. The star is where a group is joined. Boc = CC(C)(C)OC(=O)* Bounds are passed on as bounds.

What all share (test): NCI-60 cell line screen, 48 h
Assay [1] relates to CAKI-1.
Assay [2] deals with EKVX.
Assay [3] relates to HCC 2998.
For assay [4], the system named is HCT-15.
Assay [5] has as its system KM12.
The subject of assay [6] is NCI/ADR-RES.
Assay [7] has as its system OVCAR-3.
In assay [8] the test system is OVCAR-5.
The subject of assay [9] is OVCAR-8.
In assay [10] the test system is SF-295.
Assay [11] relates to SK-MEL-28.
The test system of assay [12] is SK-MEL-2.
Assay [13] has as its system SNB-75.
In assay [14] the test system is SR.
For assay [15], the system named is TK-10.
The test system of assay [16] is UO-31.
Assay [17] deals with A498.
Assay [18] deals with UACC-257.
For assay [19], the system named is NCI-H522.

For the compound `Cc1cc(C)c(OC(=O)Nc2cccc3ccccc23)c(-c2ccccc2)c1`, the GI50 was 33.7 µM (inactive) in [1]; 38.3 µM (inactive) in assay [2]; 27.7 µM (inactive) in assay [3]; 34.4 µM in [4]; 28.4 µM (inactive) in [5]; 26.9 µM (inactive) in assay [6]. Moreover, the GI50 in [7] is 24.5 µM (inactive); in assay [8], 73.8 µM (inactive); in [9], 33.6 µM (inactive); in assay [10], 48.8 µM (inactive); in [11], 31.3 µM (inactive); in [12], > 10 µM (inactive). Further, the GI50 in assay [13] was 14.5 µM (inactive); in assay [14] it was 19.6 µM (inactive); in [15] it was 33.4 µM (inactive); in assay [16] it was 7.52 µM (inactive).

With `CCCCOP(=O)(OCCCC)C(NS(=O)(=O)c1ccccc1)(C(=O)OCC)C(F)(F)F` (centres undefined), the GI50 is 34.5 µM (inactive) in [17]; 16.4 µM (inactive) in assay [1]; 30.1 µM (inactive) in [2]; > 100 µM (inactive) in [3]; 39.7 µM in [4]; 31 µM (inactive) in [5]. Moreover, the GI50 was 26 µM (inactive) in assay [6]; 25.1 µM (inactive) in [7]; 31 µM (inactive) in assay [8]; 40.1 µM (inactive) in assay [9]; 25.8 µM (inactive) in assay [10]; 34.1 µM (inactive) in assay [11]. The GI50 in assay [13] is 27.6 µM (inactive); in assay [14], 26.7 µM (inactive); in assay [15], 33.9 µM (inactive); in assay [18], 31.9 µM (inactive); in assay [16], > 100 µM (inactive).

With `CC1CC(C)CC(NC2=NCCO2)C1` (centres undefined), the GI50 in assay [17] was > 100 µM (inactive); in [1], > 100 µM (inactive); in assay [2], > 100 µM (inactive); in assay [3] it was > 100 µM (inactive); in assay [4], more than 100 µM; in [5] it was > 100 µM (inactive). In addition, the GI50 in [19], in assay [6], in assay [7], in assay [8], in assay [9] and in assay [10] was > 100 µM (inactive) in each case. Besides, the GI50 in assay [11], in [12], in assay [14], in assay [15], in [18] and in assay [16] was > 100 µM (inactive) in each case.

Consider `N#C/C(C(=O)NCc1ccccc1)=C(/N)N1CCCC1`, for which the GI50 is 94.8 µM (inactive) in assay [17]; 39.6 µM (inactive) in assay [1]; > 100 µM (inactive) in assay [2]; > 100 µM (inactive) in assay [3]; more than 100 µM in assay [4]; > 100 µM (inactive) in [5]. Also, the GI50 in [19], in [6], in assay [7], in assay [8], in [9] and in assay [10] was > 100 µM (inactive) each time. Moreover, the GI50 in assay [11] was > 100 µM (inactive); in [12] it was > 100 µM (inactive); in assay [14], > 100 µM (inactive); in assay [15], > 100 µM (inactive); in assay [18], > 100 µM (inactive); in assay [16], 46.3 µM (inactive).

Take `COC(=O)[C@@H]1CN(C(C)=O)C(=O)N1C(=O)OCc1ccccc1`: the GI50 in assay [17] was > 100 µM (inactive); in assay [1], > 100 µM (inactive); in assay [2] it was > 100 µM (inactive); in [3], > 100 µM (inactive); in assay [4], more than 100 µM; in assay [5] it was > 100 µM (inactive). For the same compound, the GI50 in assay [19], in assay [6], in assay [7], in [8], in assay [9] and in assay [10] was > 100 µM (inactive) in each case. The GI50 in [11], in assay [12], in assay [14], in assay [15], in assay [18] and in assay [16] was > 100 µM (inactive) each time.

As to `C[C@@H](c1ccccc1)N1C[C@@H](c2ccc3c(c2)OCO3)[C@@H]2C(=O)CCC[C@@H]21`, the GI50 in assay [17] is 28.6 µM (inactive); in assay [1], > 100 µM (inactive); in [2], 69.3 µM (inactive); in assay [3], 30.1 µM (inactive); in assay [4] it was 61.2 µM; in [5] it was 97.9 µM (inactive). The GI50 in [19] was 42.5 µM (inactive); in assay [6] it was 81.7 µM (inactive); in [8], > 100 µM (inactive); in assay [9] it was > 100 µM (inactive); in assay [10], 79.3 µM (inactive); in assay [11] it was 28.6 µM (inactive). For the same compound, the GI50 in assay [12] is 41 µM (inactive); in assay [13], 36.4 µM (inactive); in [14], 42.8 µM (inactive); in [15], > 100 µM (inactive); in assay [18], 50.2 µM (inactive); in [16], 83 µM (inactive).

As to `O=C(NC(CS)C(=O)O)c1cccc2c(=O)c3ccccc3[nH]c12` (centres undefined), the GI50 in assay [17] is > 100 µM (inactive); in [2], > 100 µM (inactive); in [4], more than 100 µM; in assay [5], > 100 µM (inactive); in assay [19], 47 µM (inactive); in assay [6] it was > 100 µM (inactive). In addition, the GI50 in [7], in assay [8], in [9], in assay [10], in assay [11] and in assay [12] was > 100 µM (inactive) throughout. The GI50 in assay [13], in assay [14], in assay [15] and in assay [16] was > 100 µM (inactive) throughout.

Turning to `CC(C)(C)OC(=O)NC(Cc1ccc(O)cc1)C(=O)N1CCCC1C(=O)O` (stereo not drawn) (Boc-Tyr-Pro-OH; configuration not given here), the GI50 was > 100 µM (inactive) in assay [17]; > 100 µM (inactive) in [1]; > 100 µM (inactive) in [2]; > 100 µM (inactive) in assay [3]; more than 100 µM in assay [4]; > 100 µM (inactive) in assay [5]. For the same compound, the GI50 in assay [19], in assay [7], in assay [8], in assay [9], in [10] and in [11] was > 100 µM (inactive) throughout. Besides, the GI50 in assay [12], in assay [13], in assay [14], in assay [15], in assay [18] and in assay [16] was > 100 µM (inactive) throughout.
